Columns and labels:
Hs578T = assay: SRB cell viability after siRNA transfection; assay type: cell-based, human; conditions: 40 nM siRNA, day 5 post-transfection, normalized over siCONTROL
Protocol: (§1) Different normal breast and breast cancer cell lines were used for siRNA transfection. Cells were seeded at various concentrations, ranging from 1500 to 6000 per well according to cell growth rate, into 96 well plates. 40 nM individual siRNAs or 40 nM siRNA pool including four individual siRNAs at 10 nM each were transfected into cells using Lipofectamine-2000 24 hrs after cell seeding. Cells were then incubated at 37° C. for five days before cell viability assay were conducted.
(§2) SRB assay was performed to assess cell survival. SRB is a water-soluble dye that binds to the basic amino acids of the cellular proteins. Thus, colorimetric measurement of the bound dye provides an estimate of the total protein mass and is related to the cell number. The cells were fixed in situ by gently aspirating off the culture media and adding 50 μl ice cold 10% Tri-chloroacetic Acid (TCA) per well and incubate at 4° C. for 30-60 min. The plates were washed with tap water five times and allowed to air dry for 5 min. 50 μl of 0.4% (w/v) Sulforhodamine B solution in 1% (v/v) acetic acid was added per well and incubated for 30 min at RT for staining. Following staining, plates were washed four times with 1% acetic acid to remove any unbound dye and then allowed to air dry for 5 min. The stain was solubilized with 100 μl of 10 mM Tris pH 10.5 per well. Absorbance was read at 570 mn. The cell survival percentage after each siRNA(s) knock down was calculated over the non-silencing control siCTRL or siPOOL as well as siTOX as a transfection efficiency control.
(§3) To assess the effects of TTK knockdown on the viability of breast cancer cells, various breast cancer cell lines were transfected with each of the four TTK-targeting siRNAs individually, the pooled siRNA containing all four of the TTK-targeting siRNAs, or the siCONTROL siRNA, all at a concentration of 40 nM. At day 5 post-transfection, the viability of the cells was determined using the SRB assay described herein.

MDA-MB-231 = assay: SRB cell viability after siRNA transfection; assay type: cell-based, human; conditions: 40 nM siRNA, day 5 post-transfection, normalized over siCONTROL
Protocol: as §1, §2, §3

BT474 = assay: SRB cell viability after siRNA transfection; assay type: cell-based, human; conditions: 40 nM siRNA, day 5 post-transfection, normalized over siCONTROL
Protocol: as §1, §2, §3

CAMA-1 = assay: SRB cell viability after siRNA transfection; assay type: cell-based, human; conditions: 40 nM siRNA, day 5 post-transfection, normalized over siCONTROL
Protocol: as §1, §2, §3

MDA-MB-468 = assay: SRB cell viability after siRNA transfection; assay type: cell-based, human; conditions: 40 nM siRNA, day 5 post-transfection, normalized over siCONTROL
Protocol: as §1, §2, §3

MCF-7 = assay: SRB cell viability after siRNA transfection; assay type: cell-based, human; conditions: 40 nM siRNA, day 5 post-transfection, normalized over siCONTROL
Protocol: as §1, §2, §3

SKBr-3 = assay: SRB cell viability after siRNA transfection; assay type: cell-based, human; conditions: 40 nM siRNA, day 5 post-transfection, normalized over siCONTROL
Protocol: as §1, §2, §3

MDA-MB-330 = assay: SRB cell viability after siRNA transfection; assay type: cell-based, human; conditions: 40 nM siRNA, day 5 post-transfection, normalized over siCONTROL
Protocol: as §1, §2, §3

T47D = assay: SRB cell viability after siRNA transfection; assay type: cell-based, human; conditions: 40 nM siRNA, day 5 post-transfection, normalized over siCONTROL
Protocol: as §1, §2, §3

MDA-MB-435 = assay: SRB cell viability after siRNA transfection; assay type: cell-based, human; conditions: 40 nM siRNA, day 5 post-transfection, normalized over siCONTROL
Protocol: as §1, §2, §3

MDA-MB-453 = assay: SRB cell viability after siRNA transfection; assay type: cell-based, human; conditions: 40 nM siRNA, day 5 post-transfection, normalized over siCONTROL
Protocol: as §1, §2, §3

HCC1419 = assay: SRB cell viability after siRNA transfection; assay type: cell-based, human; conditions: 40 nM siRNA, day 5 post-transfection, normalized over siCONTROL
Protocol: as §1, §2, §3

[1] = test system: T-47D breast cancer cells; assay: Colony formation in soft agar after siRNA transfection; assay type: cell-based, human; conditions: 40 nM siRNA, relative to siCONTROL, two independent experiments
Protocol: Cells were transfected with 40 nM individual siRNAs, 40 nM siRNA pool including four individual siRNAs at 10 nM each or 40 nM non-silencing control siCONTROL using Lipofectamine 2000 Transfection Reagent (Invitrogen Corporation), mixed with culture medium containing 0.7% agar in 6-well plates and cultured at 37° C. After 2 weeks, the top layer of the culture was stained with 0.2% p-iodonitrotetrazolium violet and colonies were counted using a Sorcerer Colony Counter (Optomax).
To determine the effects of siRNA-mediated knockdown of TTK gene expression on anchorage-independent cell growth in breast cancer cells, T-47D breast cancer cell line was transfected with either the siRNA#2 or siRNA#3 TTK-targeting siRNA, the siRNA POOL containing 4 TTK-targeting siRNAs or the siCONTROL non-targeting siRNA. Following transfection colony formation in soft agar was assessed.

MDA-MB-468 (Basal) = assay: Cell cycle profile by flow cytometry after siRNA transfection; assay type: cell-based, human; conditions: 40 nM siRNA, day 3 post-transfection; for <G1: siCONTROL (Neg. Control) 4.09; for G2/M: siCONTROL (Neg. Control) 20.59
Protocol: (§4) To assess the effects of TTK knockdown on the physiology of normal breast and breast cancer cell lines, luminal (MCF7) or basal-like (MDA-MB-435, MDA-MB-468) breast cancer cell lines, a lung cancer cell line (A549) and a normal breast cell line (184A1) each were transfected with 40 nM of TTK-targeting siRNA #2, siRNA #3, the pooled siRNA containing all four of the TTK-targeting siRNAs, or the siCONTROL siRNA. At day 3 post-transfection, the cell cycle profile of the transfected cells was analyzed by flow cytometry to determine the effects of TTK knockdown on cell cycle arrest and cell death. Depletion of TTK in cells transfected with TTK-targeting siRNAs caused significant cell cycle arrest and cell death.

MDA-MB-435 (Basal) = assay: as above; assay type: cell-based, human; conditions: 40 nM siRNA, day 3 post-transfection; for <G1: siCONTROL (Neg. Control) 0.85; for G2/M: siCONTROL (Neg. Control) 18.77
Protocol: as §4

MCF-7 (Luminal) = assay: as above; assay type: cell-based, human; conditions: for apoptosis, indicated by increased G2/M and <G1 populations: MCF7 breast cancer cells, flow cytometry, vs siCONTROL; for <G1 / G2/M: MCF-7, 40 nM siRNA, day 3 post-transfection; for <G1: siCONTROL (Neg. Control) 2.11; for G2/M: siCONTROL (Neg. Control) 16.17
Protocol: as §4

A549 (Lung) = assay: as above; assay type: cell-based, human; conditions: 40 nM siRNA, day 3 post-transfection; for <G1: siCONTROL (Neg. Control) 0.84; for G2/M: siCONTROL (Neg. Control) 10.57
Protocol: as §4

184A1 (Normal) = assay: as above; assay type: cell-based, human; conditions: 40 nM siRNA, day 3 post-transfection; for <G1: siCONTROL (Neg. Control) 1.03; for G2/M: siCONTROL (Neg. Control) 10.35
Protocol: as §4

tumors = conditions: TNP-470 below maximum tolerated dose with cyclophophamide 170 mg/kg, every 6 days; cited from earlier work

Compound	% survival (Hs578T) [%]	% survival (MDA-MB-231) [%]	% survival (BT474) [%]	% survival (CAMA-1) [%]	% survival (MDA-MB-468) [%]	% survival (MCF-7) [%]	% survival (SKBr-3) [%]	% survival (MDA-MB-330) [%]	% survival (T47D) [%]	% survival (MDA-MB-435) [%]	% survival (MDA-MB-453) [%]	% survival (HCC1419) [%]	colonies formed in soft agar (number and size) [1]	<G1 (MDA-MB-468 (Basal))	G2/M (MDA-MB-468 (Basal))	<G1 (MDA-MB-435 (Basal))	G2/M (MDA-MB-435 (Basal))	apoptosis, indicated by increased G2/M and <G1 populations (MCF-7 (Luminal))	<G1 (MCF-7 (Luminal))	G2/M (MCF-7 (Luminal))	other results
siRNA #1: siRNA targeting human TTK: 5′-GCAAUACCUUGGAUGAUUA-3′ (SEQ ID NO: 3) (listed as RNA, chemistry not given here)	1.02	0.21	0.64	0.46	0.69	0.27	0.32	0.31	0.62	0.78	0.33	0.91	–	–	–	–	–	–	–	–	–
siRNA #4: siRNA targeting human TTK: 5′-GAUAAGAUCAUCCGACUUU-3′ (SEQ ID NO: 6) (listed as RNA, chemistry not given here)	1.16	0.58	0.90	0.77	1.46	0.63	0.91	0.72	1.19	0.93	0.56	1.05	–	–	–	–	–	–	–	–	–
siRNA #2: siRNA targeting human TTK: 5′-GGUAUUAACUGCCCAAGAA-3′ (SEQ ID NO: 4) (listed as RNA, chemistry not given here)	1.25	−0.09	0.66	0.30	0.00	0.27	0.34	0.38	0.44	0.25	−0.04	0.75	reduction in the number of colonies	15.10	15.72	4.69	19.89	caused apoptosis of the cancer cells	12.03	25.18	colonies formed in soft agar (number and size) ([1]; listed as siRNA#2): reduction in both colony size and number; <G1 (A549 (Lung)): 6.03; G2/M (A549 (Lung)): 20.58; <G1 (184A1 (Normal)): 5.35; G2/M (184A1 (Normal)): 27.75
CO[C@@H]1[C@H](OC(=O)NC(=O)CCl)CC[C@]2(CO2)[C@H]1[C@@]1(C)O[C@@H]1CC=C(C)C [TNP-470]	–	–	–	–	–	–	–	–	–	–	–	–	–	–	–	–	–	–	–	–	tumor response (tumors): complete regression of the tumors
siRNA #3: siRNA targeting human TTK: 5′-GCACGUGACUACUUUCAAA-3′ (SEQ ID NO: 5) (listed as RNA, chemistry not given here)	0.53	0.23	0.83	0.52	0.27	0.23	0.49	0.63	0.74	0.60	0.18	0.91	reduction in the number of colonies	11.12	28.41	2.66	40.08	caused apoptosis of the cancer cells	5.61	65.23	colonies formed in soft agar (number and size) ([1]; listed as siRNA#3): reduction in both colony size and number; <G1 (A549 (Lung)): 11.38; G2/M (A549 (Lung)): 24.87; <G1 (184A1 (Normal)): 3.92; G2/M (184A1 (Normal)): 17.49

Source: patent publication US20140086938A1, “METHODS OF INHIBITING TUMOR GROWTH USING TTK ANTAGONISTS” (University Health Network, priority 2007, published 2014)
